Source: BindingDB's records for doi:10.1016/j.chembiol.2016.11.007 (University of Connecticut, 2016)

Columns and labels:
Experiment in all cases: DHFR Inhibition Assay
[1] = target: Dihydrofolate reductase type 1 from Tn4003 (Staphylococcus aureus, UniProt P13955)
Dihydrofolate reductase [2] = target: T1, Dihydrofolate reductase (Staphylococcus aureus, UniProt C7C2U7)
T1 sequence (C7C2U7 whole entry): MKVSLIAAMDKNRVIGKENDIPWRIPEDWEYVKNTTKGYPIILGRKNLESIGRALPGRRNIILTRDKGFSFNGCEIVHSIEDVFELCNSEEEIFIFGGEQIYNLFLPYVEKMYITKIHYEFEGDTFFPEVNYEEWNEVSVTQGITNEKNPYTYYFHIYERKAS

Dihydrofolate reductase [3] = target: T2, Dihydrofolate reductase (Staphylococcus aureus, UniProt Q4H3Y3)
T2 sequence (Q4H3Y3 whole entry): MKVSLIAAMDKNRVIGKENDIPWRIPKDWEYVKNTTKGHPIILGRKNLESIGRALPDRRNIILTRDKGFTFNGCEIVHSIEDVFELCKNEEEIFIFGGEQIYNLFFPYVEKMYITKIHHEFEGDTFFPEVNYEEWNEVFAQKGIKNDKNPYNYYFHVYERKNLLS

Dihydrofolate reductase [4] = target: Dihydrofolate reductase (Staphylococcus aureus, UniProt P0A017)
Sequence of Dihydrofolate reductase (Staphylococcus aureus, UniProt P0A017) (P0A017 whole entry): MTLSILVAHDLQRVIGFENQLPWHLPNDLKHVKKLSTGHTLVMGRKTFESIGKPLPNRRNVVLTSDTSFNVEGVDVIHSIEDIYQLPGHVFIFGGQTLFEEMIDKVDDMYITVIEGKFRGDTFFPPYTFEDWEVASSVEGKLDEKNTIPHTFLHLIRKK

Sequence of Dihydrofolate reductase type 1 from Tn4003 (P13955 whole entry): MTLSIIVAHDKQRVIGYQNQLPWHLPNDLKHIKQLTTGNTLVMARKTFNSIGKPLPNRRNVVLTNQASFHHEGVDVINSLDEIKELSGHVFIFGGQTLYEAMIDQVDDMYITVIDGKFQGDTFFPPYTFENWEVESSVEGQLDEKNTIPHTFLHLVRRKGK

| SMILES | IC50 [1] [nM] | IC50 (Dihydrofolate reductase [2]) [nM] | IC50 (Dihydrofolate reductase [3]) [nM] | IC50 (Dihydrofolate reductase [4]) [nM] |
| --- | --- | --- | --- | --- |
| CCc1nc(N)nc(N)c1C#CCc1cc(OC)c(OC)c(-c2ccncc2)c1 [UCP1039] | 360 | 22 | 450 | – |
| CCc1nc(N)nc(N)c1C#C[C@@H](C)c1cc(-c2ccc(C(=O)O)cc2)ccc1OC [UCP1164] | 8800 | – | – | – |
| CCc1nc(N)nc(N)c1C#C[C@@H](C)c1cc(OC)cc(-c2ccc(C(=O)O)cc2)c1 [UCP1172] | 410 | – | – | – |
| CCc1nc(N)nc(N)c1C#C[C@H](C)c1cc(OC)cc(-c2ccc(C(=O)O)cc2)c1 [UCP1173] | 270 | – | – | – |
| CCc1nc(N)nc(N)c1C#CCc1cc(OC)cc(-c2ccc(C(=O)O)cc2)c1 [UCP1175] | 980 | 170 | 1400 | – |
| CCc1nc(N)nc(N)c1C#CC(C)c1cc2c(c(-c3ccc(C(=O)O)cc3)c1)OCO2 (stereo unspecified) [UCP1191] | 320 | 41 | 87 | 10 |
| CCc1nc(N)nc(N)c1C#C[C@@H](C)c1cc2c(c(-c3ccc(C(=O)O)cc3)c1)OCO2 [UCP1205] | 340 | 100 | 159 | 18 |
| CCc1nc(N)nc(N)c1C#C[C@H](C)c1cc2c(c(-c3ccc(C(=O)O)cc3)c1)OCO2 [UCP1206] | 180 | 54 | 190 | 17 |
